In patent US20240182503A1, “MACROCYCLE COMPLEMENT FACTOR B INHIBITORS” (priority 2021, published 2024):

molecular target: CVF-Bb complex (Homo sapiens (Human), UniProt P00751); experiment: biochemical; type: biochemical; conditions: not given
Method: CVF-Bb complex, prepared from purified cobra venom factor, (3 nM) is incubated with a compound of the disclosure at various concentrations for 10 minutes at room temperature in PBS (pH 7.4) containing 10 mM MgCl2 and 0.05% (w/v) CHAPS. Human Complement C3 substrate is added to a final concentration of 1 μM. After 1 hour incubation at room temperature, the enzyme reaction is stopped by addition of a cocktail of concentrated pan-protease inhibitors. The product of the reaction, C3a, is quantified by means of an enzyme-linked-immunosorbent assay and/or denaturing gel electrophoresis (SDS-PAGE). IC50 values are calculated from percentage of inhibition of CVF-Bb activity as a function of test compound concentration.

**Q.** For `COc1cc(C)c2[nH]ccc2c1CN1CC[C@H]2C[C@H]1c1ccc(C(=O)NS(C)(=O)=O)cc1OCCCCCCO2` [Ex. 33, (1^2S,1^4S)-1^1-((5-methoxy-7-methyl-1H-indol-4-yl)methyl)-N-(methylsulfonyl)-3,10-dioxa-1(2,4)-piperidina-2(1,2)-benzenacyclodecaphane-2^4-carboxamide], which IC50 is on record?
**A.** 96 nM

**Q.** For `COc1cc(C)c2[nH]ccc2c1CN1CC[C@H](OCCNC(C)=O)C[C@H]1c1ccc(C(=O)O)cc1` [Compar. Ex. 1, 4-((2S,4S)-4-(2-acetamidoethoxy)-1-((5-methoxy-7-methyl-1H-indol-4-yl)methyl)piperidin-2-yl)benzoic acid, reference compound], which IC50 is on record?
**A.** 135 nM

**Q.** `CCO[C@H]1CCN2Cc3c(cc(C)c4[nH]ccc34)OCCCCCCCCCCOc3cc(C(=O)O)ccc3[C@@H]2C1` [Ex. 32, (21bS,23S)-23-ethoxy-4-methyl-7,8,9,10,11,12,13,14,15,16,21b,22,23,24,25,2 7-hexadecahydro-3H-benzo[7,8]pyrido[1′,2′:5,6][1,9,5]dioxaazacyclo-nonadecino[3,2-e]indole-19-carboxylic acid] was tested. Which IC50 did it give?
**A.** > 10000 nM

**Q.** How did the IC50 turn out when `COc1cc(C)c2[nH]ccc2c1CN1CC[C@H]2C[C@H]1c1ccc(C(=O)NS(C)(=O)=O)cc1OCCCCCO2` [Ex. 40, (1^2R,1^4R)-1^1-((5-methoxy-7-methyl-1H-indol-4-yl)methyl)-N-(methylsulfonyl)-3,9-dioxa-1(2,4)-piperidina-2(1,2)-benzenacyclononaphane-2^4-carboxamide] was run?
**A.** 309 nM

**Q.** Which IC50 does the source give for `CCO[C@H]1CCN2Cc3c(cc(C)c4[nH]ccc34)OCCCCCCCCCOc3cc(C(=O)O)ccc3[C@@H]2C1` [Ex. 31, (20bS,22S)-22-ethoxy-4-methyl-3,7,8,9,10,11,12,13,14,15,20b,21,22,23,24,26-hexadecahydrobenzo[7,8]pyrido[1′,2′:5,6][1,9, 5]dioxaazacyclooctadecino[3,2-e]indole-18-carboxylic acid] here?
**A.** 2870 nM

**Q.** `COc1cc(C)c2[nH]ccc2c1CN1CC[C@H]2C[C@H]1c1ccc(C(=O)NS(=O)(=O)C(C)C)cc1OCCCCCCO2` [Ex. 47, (1^2S,1^4S)-N-(isopropylsulfonyl)-11-((5-methoxy-7-methyl-1H-indol-4-yl)methyl)-3,10-dioxa-1(2,4)-piperidina-2(1,2)-benzenacyclodecaphane-2^4-carboxamide] was tested. Which IC50 did it give?
**A.** 649 nM

**Q.** Which IC50 does the source give for `COc1cc(C)c2[nH]ccc2c1CN1CC[C@H]2C[C@H]1c1ccc(C(=O)O)cc1/C=C/CCCCCO2` [Ex. 36, (1^2R,1^4R,E)-1^1-((5-methoxy-7-methyl-1H-indol-4-yl)methyl)-10-oxa-1(2,4)-piperidina-2(1,2)-benzenacyclodecaphan-3-ene-2^4-carboxylic acid] here?
**A.** 241 nM

**Q.** For `COc1cc(C)c2[nH]ccc2c1CN1CC[C@H]2CC1c1ccc(C(=O)O)cc1CCCCCCCO2` [Ex. 39, (1^2S,1^4RS)-1^1-((5-methoxy-7-methyl-1H-indol-4-yl)methyl)-10-oxa-1(2,4)-piperidina-2(1,2)-benzenacyclodecaphane-2^4-carboxylic acid], which IC50 is on record?
**A.** 251 nM

**Q.** `COc1cc(C)c2[nH]ccc2c1CN1CC[C@@H]2C[C@@H]1c1ccc(C(=O)O)cc1OCC/C=C\CO2` [Ex. 42, (1^2R,1^4R,Z)-1^1-((5-methoxy-7-methyl-1H-indol-4-yl)methyl)-3,9-dioxa-1(2,4)-piperidina-2(1,2)-benzenacyclononaphan-6-ene-2^4-carboxylic acid] was tested. Which IC50 did it give?
**A.** 1060 nM

**Q.** How did the IC50 turn out when `CCO[C@H]1CCN2Cc3c(cc(C)c4[nH]ccc34)OCCCCCCCCOc3cc(C(=O)O)ccc3[C@@H]2C1` [Ex. 30, (19bS,21S)-21-ethoxy-4-methyl-7,8,9,10,11,12,13,14,19b,20,21,22,23,25-tetradecahydro-3H-benzo[7,8]pyrido[1′,2′:5,6][1,9,5]dioxaazacyclo-heptadecino[3,2-e]indole-1^7-carboxylic acid] was run?
**A.** 4910 nM

same assay, conditions: read-out: IC50

**Q.** With `COc1cc(C)c2[nH]ccc2c1CN1CC[C@H]2C[C@H]1c1ccc(C(=O)O)c3ccc(cc13)OCC/C=C/CO2` [Ex. 76, (1^2S,1^4S)-1^1-((5-methoxy-7-methyl-1H-indol-4-yl)methyl)-3,9-dioxa-1(2,4)-piperidina-2(1,7)-naphthalenacyclononaphane-2^4-carboxylic acid] as the molecule, how does the IC50 read?
**A.** 251 nM

**Q.** How did the IC50 turn out when `COc1cc(C)c2[nH]ccc2c1CN1CC[C@H]2C[C@H]1c1ccc(C(=O)O)cc1/C=C/CCCCCCCO2` [Ex. 73, (1^2S,1^4S,Z)-1^1-((5-methoxy-7-methyl-1H-indol-4-yl)methyl)-12-oxa-1(2,4)-piperidina-2(1,2)-benzenacyclododecaphan-3-ene-2^4-carboxylic acid] was run?
**A.** 271 nM

**Q.** Which IC50 does the source give for `COc1cc(C)c2[nH]ccc2c1CN1CC[C@H]2C[C@H]1c1ccc(C(=O)NS(C)(=O)=O)cc1CCCCCCCO2` [Ex. 71, (1^2S,1^4S)-1^1-((5-methoxy-7-methyl-1H-indol-4-yl)methyl)-N-(methylsulfonyl)-10-oxa-1(2,4)-piperidina-2(1,2)-benzenacyclodecaphane-2^4-carboxamide] here?
**A.** 258 nM

**Q.** How did the IC50 turn out when `COc1cc(C)c2[nH]ccc2c1CN1CC[C@H]2C[C@H]1c1ccc(C(=O)NS(=O)(=O)c3ccccc3)cc1OCCCCCO2` [Ex. 70, (1^2S,1^4S)-1^1-((5-methoxy-7-methyl-1H-indol-4-yl)methyl)-N-(phenylsulfonyl)-3,9-dioxa-1(2,4)-piperidina-2(1,2)-benzenacyclononaphane-2^4-carboxamide] was run?
**A.** 543 nM

**Q.** `COc1cc(C)c2[nH]ccc2c1CN1CC[C@H]2C[C@H]1c1ccc(C(=O)O)cc1OCCCn1cc(nn1)CO2` [Ex. 13, (2^2S,2^4S,Z)-2^1-((5-methoxy-7-methyl-1H-indol-4-yl)methyl)-5′H-3,9-dioxa-2(2,4)-piperidina-5(4,1)-triazola-1(1,2)-benzenacyclononaphane-1^4-carboxylic acid] was tested. Which IC50 did it give?
**A.** 1110 nM

**Q.** With `COc1cc(C)c2[nH]ccc2c1CN1CC[C@H]2C[C@H]1c1ccc(C(=O)O)cc1CCCCCCCCCO2` [Ex. 72, (1^2S,1^4S)-1^1-((5-methoxy-7-methyl-1H-indol-4-yl)methyl)-12-oxa-1(2,4)-piperidina-2(1,2)-benzenacyclododecaphane-2^4-carboxylic acid] as the molecule, how does the IC50 read?
**A.** 129 nM

**Q.** Which IC50 does the source give for `COc1cc(C)c2[nH]ccc2c1CN1CCC2CC1c1ccc(C(=O)O)c3ccc(cc13)OCCCCCCO2` (centres unmarked) [Ex. 52, (1^2R,1^4R)-1^1-((5-methoxy-7-methyl-1H-indol-4-yl)methyl)-3,10-dioxa-1(2,4)-piperidina-2(1,7)-naphthalenacyclodecaphane-2^4-carboxylic acid] here?
**A.** > 10000 nM

**Q.** For `COc1cc(C)c2[nH]ccc2c1CN1CC[C@H]2C[C@H]1c1ccc(C(=O)O)c3ccc(cc13)OCCCCCCO2` [Ex. 49, (1^2S,14S)-1^1-((5-methoxy-7-methyl-1H-indol-4-yl)methyl)-3,10-dioxa-1(2,4)-piperidina-2(1,7)-naphthalenacyclodecaphane-2^4-carboxylic acid], which IC50 is on record?
**A.** 208 nM

**Q.** Which IC50 does the source give for `CNS(=O)(=O)c1ccc2c(c1)OCCCCCCO[C@H]1CCN(Cc3c(OC)cc(C)c4[nH]ccc34)[C@H]2C1` [Ex. 79, (1^2S,1^4S)-1^1-((5-methoxy-7-methyl-1H-indol-4-yl)methyl)-N-methyl-3,10-dioxa-1(2,4)-piperidina-2(1,2)-benzenacyclodecaphane-2^4-sulfonamide] here?
**A.** > 10000 nM

**Q.** Which IC50 does the source give for `COc1cc(C)c2[nH]ccc2c1CN1CC[C@H]2CCCCCCCOc3cc(C(=O)O)ccc3[C@@H]1C2` [Ex. 78, (1^2S,1^4R)-1^1-((5-methoxy-7-methyl-1H-indol-4-yl)methyl)-3-oxa-1(2,4)-piperidina-2(1,2)-benzenacyclodecaphane-2^4-carboxylic acid] here?
**A.** 731 nM

**Q.** Which IC50 does the source give for `COc1cc(C)c2[nH]ccc2c1CN1CC[C@H]2C[C@H]1c1ccc(C(=O)O)cc1OCCC/C=C\CO2` [Ex. 11, (1^2S,1^4S,Z)-1′-((5-methoxy-7-methyl-1H-indol-4-yl)methyl)-3,10-dioxa-1(2,4)-piperidina-2(1,2)-benzenacyclodecaphan-7-ene-2^4-carboxylic acid] here?
**A.** 1200 nM

**Q.** With `COc1cc(C)c2[nH]ccc2c1CN1CC[C@H]2C[C@H]1c1ccc(-c3ccn[nH]3)cc1OCCCCCCO2` [Ex. 55, (1^2S,1^4S)-1^1-((5-methoxy-7-methyl-1H-indol-4-yl)methyl)-2^4-(1H-pyrazol-5-yl)-3,10-dioxa-1(2,4)-piperidina-2(1,2)-benzenacyclodecaphane] as the molecule, how does the IC50 read?
**A.** 2890 nM

**Q.** `COc1cc(C)c2[nH]ccc2c1CN1CC[C@H]2C[C@H]1c1ccc(C(=O)O)cc1OCC/C=C\CO2` [Ex. 9, (1^2S,1^4S,Z)-1^1-((5-methoxy-7-methyl-1H-indol-4-yl)methyl)-3,9-dioxa-1(2,4)-piperidina-2(1,2)-benzenacyclononaphan-6-ene-2^4-carboxylic acid] was tested. Which IC50 did it give?
**A.** 342 nM

**Q.** How did the IC50 turn out when `COc1cc(C)c2[nH]ccc2c1CN1CC[C@H]2C[C@H]1c1ccc(C(=O)NS(C)(=O)=O)cc1/C=C/CCCCCCO2` [Ex. 58, (1^2S,1^4S, E)-1^1-((5-methoxy-7-methyl-1H-indol-4-yl)methyl)-N-(methylsulfonyl)-11-oxa-1(2,4)-piperidina-2(1,2)-benzenacycloundecaphan-3-ene-2^4-carboxamide] was run?
**A.** 1060 nM

**Q.** How did the IC50 turn out when `COc1cc(C)c2[nH]ccc2c1CN1CCC2CC1c1ccc(C(=O)O)cc1OCCCCCCO2` (centres unmarked) [Ex. 5, (1^2S,1^4S)-11-((5-methoxy-7-methyl-1H-indol-4-yl)methyl)-3,10-dioxa-1(2,4)-piperidina-2(1,2)-benzenacyclodecaphane-2^4-carboxylic acid] was run?
**A.** 262 nM

**Q.** Which IC50 does the source give for `COc1cc(C)c2[nH]ccc2c1CN1CC[C@H]2C[C@H]1c1ccc(C(=O)NS(=O)(=O)c3ccccc3)cc1OCCCCCCO2` [Ex. 57, (1^2S,1^4S)-1^1-((5-methoxy-7-methyl-1H-indol-4-yl)methyl)-N-(phenylsulfonyl)-3,10-dioxa-1(2,4)-piperidina-2(1,2)-benzenacyclodecaphane-2^4-carboxamide] here?
**A.** 153 nM
